Where two headings read alike, the source gives them in different places.
Key:
hCB2 [1] = biological target: T1, hCB2 (Homo sapiens, UniProt P34972); test: […]GTPγS binding, CHO-hCB2 membranes; type: biochemical
T1 construct: gene CNR2; full-length receptor in CHO-K1 cells, membranes or intact cells; PathHunter CHO-K1-HOMSA-CNR2 for beta-arrestin

hCB2 [2] = biological target: T1, hCB2; test: forskolin-induced cAMP, GloSensor, CHO-hCB2 cells; type: cell-based; conditions: read-out: CHO cells / h CB2 cAMP
Text: forskolin-induced cAMP, GloSensor, CHO-hCB2 cells on hCB2

hCB1 = biological target: T2, hCB1 (Homo sapiens, UniProt P21554); test: [3H]CP55, […] displacement, CHO membranes; type: binding; conditions: read-out: CHO membranes / h CB 1
T2 construct: gene CNR1; full-length receptor in CHO cell membranes

hCOX-2 = biological target: T3, hCOX-2 (Homo sapiens, UniProt P35354); test: fluorescent COX inhibitor assay (ADHP), recombinant hCOX-2; type: biochemical; conditions: read-out: h COX-2 / AA
T3 construct: gene PTGS2
T3 sequence (P35354 18-604): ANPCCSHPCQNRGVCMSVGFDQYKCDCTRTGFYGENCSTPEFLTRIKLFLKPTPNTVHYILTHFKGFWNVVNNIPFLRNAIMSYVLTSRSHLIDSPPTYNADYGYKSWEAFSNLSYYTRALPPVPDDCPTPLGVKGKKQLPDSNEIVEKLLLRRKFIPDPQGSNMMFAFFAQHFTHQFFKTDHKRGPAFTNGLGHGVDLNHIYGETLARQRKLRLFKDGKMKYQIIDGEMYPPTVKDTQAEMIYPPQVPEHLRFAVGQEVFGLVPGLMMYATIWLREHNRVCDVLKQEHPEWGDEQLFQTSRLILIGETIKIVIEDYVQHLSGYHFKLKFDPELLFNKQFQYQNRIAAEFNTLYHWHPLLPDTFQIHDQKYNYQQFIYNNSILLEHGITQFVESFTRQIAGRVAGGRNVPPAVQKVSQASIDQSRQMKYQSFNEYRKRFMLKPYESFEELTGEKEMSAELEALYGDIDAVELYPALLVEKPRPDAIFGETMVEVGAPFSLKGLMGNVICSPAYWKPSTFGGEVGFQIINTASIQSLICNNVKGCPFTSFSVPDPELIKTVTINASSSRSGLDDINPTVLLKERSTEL
Text: fluorescent COX inhibitor assay (ADHP), recombinant hCOX-2 on hCOX-2

hCB2 [3] = biological target: T1, hCB2; test: [3H]CP55, […] displacement, CHO membranes; type: binding
hCB2 [4] = biological target: T1, hCB2; test: […]GTPγS binding, CHO-hCB2 membranes; type: biochemical; conditions: read-out: CHO membranes / h CB2 [ ^35 S] GTPγS
[5] = read-out: CHO membranes / h CB 2

T1 sequence (P34972 whole entry): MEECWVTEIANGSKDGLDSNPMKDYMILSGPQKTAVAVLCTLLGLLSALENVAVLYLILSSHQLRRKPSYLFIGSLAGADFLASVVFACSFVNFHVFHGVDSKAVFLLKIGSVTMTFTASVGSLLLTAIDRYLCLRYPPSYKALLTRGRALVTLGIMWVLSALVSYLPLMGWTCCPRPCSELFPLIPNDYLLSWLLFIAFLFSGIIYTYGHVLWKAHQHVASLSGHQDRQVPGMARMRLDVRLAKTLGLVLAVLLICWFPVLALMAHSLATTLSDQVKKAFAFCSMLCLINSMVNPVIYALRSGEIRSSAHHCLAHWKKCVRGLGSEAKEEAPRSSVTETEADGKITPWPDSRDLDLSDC
T2 sequence (P21554 whole entry): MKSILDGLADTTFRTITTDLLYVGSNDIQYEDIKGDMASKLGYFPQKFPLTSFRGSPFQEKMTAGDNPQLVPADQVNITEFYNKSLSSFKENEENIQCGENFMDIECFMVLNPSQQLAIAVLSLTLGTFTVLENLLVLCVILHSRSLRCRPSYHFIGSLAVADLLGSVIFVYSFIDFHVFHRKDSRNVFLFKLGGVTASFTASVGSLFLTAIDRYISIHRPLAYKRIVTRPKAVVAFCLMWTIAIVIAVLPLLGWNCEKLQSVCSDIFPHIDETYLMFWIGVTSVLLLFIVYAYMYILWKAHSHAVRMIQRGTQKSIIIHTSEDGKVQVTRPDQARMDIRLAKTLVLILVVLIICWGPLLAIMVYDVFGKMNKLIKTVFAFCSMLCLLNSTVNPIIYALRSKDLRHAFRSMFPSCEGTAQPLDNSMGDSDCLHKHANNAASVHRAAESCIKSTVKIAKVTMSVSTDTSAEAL

With `CCCCC/C=C\C/C=C\C/C=C\C/C=C\CCCC(=O)OC(CO)CO` [2-AG] the EC50 (hCB2 [1]; read-out: EC50) was 74 nM.

`C=CCc1ccc(OC)c(-c2ccc(O)c(CC=C)c2)c1` [27a, 2-methoxy-5,3′-di-(2-propenyl)-biphenyl-4′-ol] gave an EC50 (hCB2 [1]; read-out: CHO membranes / h CB2 [ ^35 S] GTPγS) of 180 ± 90 nM, an IC50 (hCB2 [2]) of 710 ± 90 nM and a Ki (hCB1) of 790 ± 100 nM. The IC50 (hCOX-2) was 1210 ± 80 nM and the Ki (hCB2 [3]; [5]) was 110 ± 90 nM.

`C=CCc1ccc(OCCCC)c(-c2ccc(O)c(CC=C)c2)c1` [34a, 2-butyloxy-5,3′-di-(2-propenyl)-biphenyl-4′-ol] was tested, and the IC50 (hCB2 [4]) was 1820 ± 140 nM, the Ki (hCB1) was 1120 ± 150 nM and the IC50 (hCOX-2) was 4310 ± 100 nM. The Ki (hCB2 [3]; [5]) was 350 ± 110 nM.

For `C=CCc1ccc(O)c(-c2ccc(OC)c(CC=C)c2)c1` [MH, 4′-methoxy-5,3′-di-(2-propenyl)-biphenyl-2-ol], the IC50 (hCOX-2; substrate arachidonic acid 10 μM, heme, pH 8, 15 min pre-incubation, RT) was 580 ± 80 nM.

`CCC(C)c1ccc(O)c(-c2cc(C(C)CC)ccc2O)c1` (stereo not shown) [compound 32, 5,5′-di-sec-butyl-biphenyl-2,2′-diol] gave an IC50 (hCOX-2) of 10200 ± 120 nM and a Ki (hCB2 [3]) of over 10000 nM.
